Experiment [1] addresses T1, GST tagged LXRbeta LBD (ligand binding domain) (Homo sapiens, UniProt P55055).
T1 construct: purchased Invitrogen pv4658.pps
T1 sequence (P55055 222-460 limits assumed): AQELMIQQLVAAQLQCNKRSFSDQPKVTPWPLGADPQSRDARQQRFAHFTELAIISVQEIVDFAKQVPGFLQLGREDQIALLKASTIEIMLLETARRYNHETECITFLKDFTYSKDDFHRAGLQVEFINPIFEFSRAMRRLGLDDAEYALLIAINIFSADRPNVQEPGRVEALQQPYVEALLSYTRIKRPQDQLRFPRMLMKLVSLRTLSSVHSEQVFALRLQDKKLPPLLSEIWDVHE
Briefly: LanthaScreen TR-FRET Liver X Receptor Coactivator Assay, LXR beta-LBD. The experiment is classed as biochemical. The note with it: relative to reference T0901317; for EC50: Inflection Point (potency), co-activator recruitment, read-out: LXR beta IP; for Emax: activity at max dose (efficacy), read-out: LXR beta act @ max dose (%). How it is done:
(§1) Potency (Inflection Point, IP) and efficacy (Emax) are evaluated via compound-induced co-activator recruitment to glutathione-S-transferase (GST) tagged LXRbeta and LXRalpha LBD (ligand binding domain) proteins in relation to reference dual agonist compound T0901317 (N-(2,2,2-Trifluoroethyl)-N-[4-[2,2,2-trifluoro-1-hydroxy-1-(trifluoromethyl)ethyl] phenyl]benzenesulfonamide) using the LanthaScreen™ TR-FRET Liver X Receptor Coactivator Assays according to manufacturer's instructions (Invitrogen catalog number pv4658.pps and pv4655). While running the LanthaScreen™ TR-FRET Liver X Receptor Coactivator Assay, LXR alpha-LBD or LXR beta-LBD was added to ligand test compounds followed by addition of a mixture of a fluorescein-labelled coactivator peptide and terbium-conjugated anti-GST antibody. After an incubation period at room temperature, TR-FRET (time-resolved fluorescence resonance energy transfer) was measured using a filter-based instrument capable of TR-FRET, e.g. PerkinElmer Envision.
On the technique in general: TR-FRET usually uses a lanthanide donor and a delayed reading to cut background.

Experiment [2] concerns the target T2, GST tagged LXRalpha LBD (ligand binding domain) (Homo sapiens, UniProt Q13133).
T2 construct: purchased Invitrogen pv4655
T2 sequence (Q13133 209-447 limits assumed): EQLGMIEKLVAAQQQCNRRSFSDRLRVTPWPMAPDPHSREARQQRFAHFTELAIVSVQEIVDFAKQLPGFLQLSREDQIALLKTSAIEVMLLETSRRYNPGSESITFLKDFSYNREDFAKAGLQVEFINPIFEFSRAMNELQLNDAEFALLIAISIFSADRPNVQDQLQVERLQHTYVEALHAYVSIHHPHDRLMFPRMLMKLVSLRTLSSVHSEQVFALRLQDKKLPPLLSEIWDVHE
Briefly: LanthaScreen TR-FRET Liver X Receptor Coactivator Assay, LXR alpha-LBD. The experiment is classed as biochemical. The note with it: relative to reference T0901317; for EC50: Inflection Point (potency), co-activator recruitment, read-out: LXR alpha IP; for Emax: activity at max dose (efficacy), read-out: LXR alpha act @ max dose (%). How it is done:
as §1

Consider 19 compounds from patent US20180305332A1, “Bispiperidinyl Derivatives as Liver X Receptor Beta Agonists, Compositions, and Their Use” (Merck Sharp & Dohme Corp., priority 2015, published 2018).

Turning to `CN(C)C(=O)c1ccc(N2CCC(C3CCN(C(=O)C4(c5ccc(F)cc5)CCC4)CC3)CC2)cc1Cl` [Example A-18, 2-chloro-4-(1′-{[1-(4-fluorophenyl)cyclobutyl]carbonyl}-4,4′-bipiperidin-1-yl)-N,N-dimethylbenzamide], in experiment [1], the EC50 is 207 nM and the Emax was found to be 81%. In experiment [2], the EC50 amounted to 4200 nM and the Emax was 15%.
The corresponding values for `Cc1cccc(C2(C(=O)N3CCC(C4CCN(c5ccc(C(=O)N(C)C)c(Cl)c5)CC4)CC3)CCC2)c1` [Example A-19, 2-chloro-N,N-dimethyl-4-(1′-{[1-(3-methylphenyl)cyclobutyl]carbonyl}-4,4′-bipiperidin-1-yl)benzamide] are 124 nM, 94%, 1750 nM and 17%.
For `CN(C)C(=O)c1ccc(N2CCC(C3CCN(C(=O)c4ccccc4C(F)(F)F)CC3)CC2)cc1Cl` [Example A-21, 2-chloro-N,N-dimethyl-4-(1′-{[2-(trifluoromethyl)phenyl]carbonyl}-4,4′-bipiperidin-1-yl)benzamide] the same measures were 243 nM, 95%, 3000 nM and 37%.
For `CN(C)C(=O)c1ccc(N2CCC(C3CCN(C(=O)c4ccccc4Cl)CC3)CC2)cc1Cl` [Example A-22, 2-chloro-4-{1′-[(2-chlorophenyl)carbonyl]-4,4′-bipiperidin-1-yl}-N,N-dimethylbenzamide] the same measures were 52 nM, 58%, 1 nM and 3%.
For `CN(C)C(=O)c1ccc(N2CCC(C3CCN(C(=O)c4c(F)cccc4F)CC3)CC2)cc1Cl` [Example A-23, 2-chloro-4-{1′-[(2,6-difluorophenyl)carbonyl]-4,4′-bipiperidin-1-yl}-N,N-dimethylbenzamide], in experiment [1], the EC50 is 79 nM and the Emax came to 92%. Besides, in experiment [2], the EC50 came out at 2980 nM and the Emax came out at 23%.
The corresponding values for `CN(C)C(=O)c1ccc(N2CCC(C3CCN(C(=O)c4c(F)cccc4Cl)CC3)CC2)cc1Cl` [Example A-24, 2-chloro-4-{1′-[(2-chloro-6-fluorophenyl)carbonyl]-4,4′-bipiperidin-1-yl}-N,N-dimethylbenzamide] are 89 nM, 107%, 4850 nM and 31%.
As to `CN(C)C(=O)c1ccc(N2CCC(C3CCN(C(=O)c4c(F)cccc4C(F)(F)F)CC3)CC2)cc1Cl` [Example A-25, 2-chloro-4-(1′-{[2-fluoro-6-(trifluoromethyl)phenyl]carbonyl}-4,4′-bipiperidin-1-yl)-N,N-dimethylbenzamide], the EC50 in experiment [1] worked out at 113 nM; in experiment [2], 3540 nM. Moreover, the Emax is 109% in experiment [1] and 54% in experiment [2].
For `CC(C)C(O)(C(=O)N1CCC(C2CCN(c3ccc(C(=O)N(C)C)c(Cl)c3)CC2)CC1)C(F)(F)C(F)(F)F` (stereo not shown) [Example A-26, 2-chloro-N,N-dimethyl-4-{1′-[3,3,4,4,4-pentafluoro-2-hydroxy-2-(1-methylethyl)butanoyl]-4,4′-bipiperidin-1-yl}benzamide] the same measures were 112 nM, 967 nM, 103% and 45%.
Consider `CN(C)C(=O)c1ccc(N2CCC(C3CCN(C(=O)C4(C(F)(F)F)CCCCC4)CC3)CC2)cc1Cl` [Example A-27, 2-chloro-N,N-dimethyl-4-(1′-{[1-(trifluoromethyl)cyclohexyl]carbonyl}-4,4′-bipiperidin-1-yl)benzamide], for which, in experiment [1], the EC50 amounted to 26 nM and the Emax worked out at 119%. In addition, in experiment [2], the EC50 is 300 nM and the Emax was determined as 70%.
As for `CN(C)C(=O)c1ccc(N2CCC(C3CCN(C(=O)C4(C(F)(F)F)CCCC4)CC3)CC2)cc1Cl` [Example A-28, 2-chloro-N,N-dimethyl-4-(1′-{[1-(trifluoromethyl)cyclopentyl]carbonyl}-4,4′-bipiperidin-1-yl)benzamide], in experiment [1], the EC50 came to 173 nM and the Emax stood at 123%. Also, in experiment [2], the EC50 amounted to 2470 nM and the Emax was found to be 73%.
Turning to `CN(C)C(=O)c1ccc(N2CCC(C3CCN(C(=O)C4(C(F)(F)F)CCC4)CC3)CC2)cc1Cl` [Example A-29, 2-chloro-N,N-dimethyl-4-(1′-{[1-(trifluoromethyl)cyclobutyl]carbonyl}-4,4′-bipiperidin-1-yl)benzamide], the EC50 is 526 nM in experiment [1] and 3580 nM in experiment [2]. The results for the Emax in experiment [1] and in experiment [2] were 106% and 46%, respectively.
The corresponding values for `CN(C)C(=O)c1ccc(N2CCC(C3CCN(C(=O)C(O)(C(F)(F)F)C4(C)CC4)CC3)CC2)cc1Cl` (stereo not shown) [Example A-30, 2-chloro-N,N-dimethyl-4-{1′-[3,3,3-trifluoro-2-hydroxy-2-(1-methylcyclopropyl)propanoyl]-4,4′-bipiperidin-1-yl}benzamide] are 73 nM, 2120 nM, 119% and 62%.
The corresponding values for `C=C(C)C(O)(C(=O)N1CCC(C2CCN(c3ccc(C(=O)N(C)C)c(Cl)c3)CC2)CC1)C(F)(F)F` (stereo not shown) [Example A-31, 2-chloro-4-{1′-[2-hydroxy-3-methyl-2-(trifluoromethyl)but-3-enoyl]-4,4′-bipiperidin-1-yl}-N,N-dimethylbenzamide] are 61 nM, 362 nM, 86% and 27%.
The corresponding values for `CN(C)C(=O)c1c(Cl)cc(N2CCC(C3CCN(C(=O)c4c(F)cccc4F)CC3)CC2)cc1Cl` [Example A-32, 2,6-dichloro-4-{1′-[(2,6-difluorophenyl)carbonyl]-4,4′-bipiperidin-1-yl}-N,N-dimethylbenzamide] are 101 nM, 748 nM, 88% and 24%.
As to `CN(C)C(=O)c1c(Cl)cc(N2CCC(C3CCN(C(=O)[C@](O)(c4ccccc4)C(F)(F)F)CC3)CC2)cc1Cl` [Example A-33, 2,6-dichloro-N,N-dimethyl-4-{1′-[(2R)-3,3,3-trifluoro-2-hydroxy-2-phenylpropanoyl]-4,4′-bipiperidin-1-yl}benzamide], the EC50 in experiment [1] came out at 48 nM; in experiment [2], 483 nM. Also, the results for the Emax in experiment [1] and in experiment [2] were 86% and 25%, respectively.
For `CC(C)C(O)(C(=O)N1CCC(C2CCN(c3cc(Cl)c(C(=O)N(C)C)c(Cl)c3)CC2)CC1)C(F)(F)F` (stereo not shown) [Example A-34, 2,6-dichloro-4-{1′-[2-hydroxy-3-methyl-2-(trifluoromethyl)butanoyl]-4,4′-bipiperidin-1-yl}-N,N-dimethylbenzamide] the same measures were 119 nM, 1350 nM, 103% and 46%.
The corresponding values for `CN(C)C(=O)c1ccc(N2CCC(C3CCN(C(=O)C(O)(C(F)(F)F)C(F)(F)F)CC3)CC2)cc1Cl` [Example A-35, 2-chloro-N,N-dimethyl-4-{1′-[3,3,3-trifluoro-2-hydroxy-2-(trifluoromethyl)propanoyl]-4,4′-bipiperidin-1-yl}benzamide] are 7 nM, 217 nM, 86% and 59%.
Consider `CN(C)C(=O)c1ccc(N2CCC(C3CCN(C(=O)C(O)(c4ccccc4)C(F)(F)F)CC3)CC2)cc1Cl` (stereo not shown) [Example A-36, 2-chloro-N,N-dimethyl-4-[1′-(3,3,3-trifluoro-2-hydroxy-2-phenylpropanoyl)-4,4′-bipiperidin-1-yl]benzamide], for which, in experiment [1], the EC50 came out at 108 nM and the Emax was 113%. Besides, in experiment [2], the EC50 was 1800 nM and the Emax stood at 27%.
For `CN(C)C(=O)c1ccc(N2CCC(C3CCN(C(=O)c4c(F)cc(F)cc4F)CC3)CC2)cc1Cl` [Example A-37, 2-chloro-N,N-dimethyl-4-{1′-[(2,4,6-trifluorophenyl)carbonyl]-4,4′-bipiperidin-1-yl}benzamide] the same measures were 274 nM, 93%, 4100 nM and 35%.
